We go through one sequence from publication PMC12125351 (Communications Biology, 2025).

No end group written: not given here.

The test deals with P. aeruginosa (ATCC 27853). In kind it is cell-based. Conditions: broth microdilution in MHB, 37 °C, 16–20 h; triplicate, n = 3. (In general: Broth dilution looks for growth in wells or tubes with falling amounts of substance.)

As to LVQRGRFGRFLSRIRRIRPRINFNIKGSI [AMP-17], the “Experimentally measured MIC against P. aeruginosa (ATCC 27853)” value is reported as “above 25 μM”.
